The text below walks through data of US9593305B2, “Differentiation of pluripotent stem cells” (Janssen Biotech, Inc., priority 2008, dated 2017).

Assay [1] relates to H1 human embryonic stem cells. Briefly: Step-wise differentiation, RT-PCR of differentiation markers (Example 12, Table 13). Conditions: GDF-8 200 ng/ml with Wnt3a or 2.5 μM compound in step 1, versus activin A/Wnt3a. Format: cell-based. On the procedure: Stock cultures of human embryonic stem cells (H1 human embryonic stem cell line) were maintained in an undifferentiated, pluripotent state on reduced growth factor […]™-coated dishes in MEF conditioned medium with passage on average every four days. Passage was performed by exposing cell cultures to a solution of 1 mg/ml dispase (Invitrogen; Cat #17105-041) for 5 to 7 minutes at 37° C. followed by rinsing the monolayer with MEF conditioned culture medium and gentle scraping to recover cell clusters. Clusters were centrifuged at low speed to collect a cell pellet and remove residual dispase. Cell clusters were split at a 1:3 or 1:4 ratio for routine maintenance culture or a 1:1 ratio for immediate assay. All human ES cell lines were maintained at passage numbers less than 50 and routinely evaluated for normal karyotype and absence of mycoplasma.
Cell clusters were evenly resuspended in MEF conditioned medium supplemented with 8 ng/ml bFGF and seeded onto reduced growth factor […]™-coated 24-well, black wall culture plates (Arctic White; Cat #AWLS-303012) in volumes of 0.5 ml/well. Daily feeding was conducted by aspirating spent culture medium from each well and replacing with an equal volume of fresh medium. Plates were maintained at 37° C., 5% CO2 throughout the duration of assay.
The assay was initiated by aspirating the culture medium from each well and adding back an aliquot (0.5 ml) of test medium. Test conditions for the first step of differentiation were conducted over a three-day period, feeding daily by aspirating and replacing the medium from each well with fresh test medium. On the first day of assay, 100 ng/ml activin A (PeproTech; Cat #120-14) or 200 ng/ml GDF-8 (R&D Systems, Cat #788-G8) was added to respective assay wells where each growth factor was diluted into RPMI-1640 medium (Invitrogen; Cat #22400) with 1% Albumin Bovine Fraction V, Fatty Acid Free (FAF BSA) (MP Biomedicals, Inc; Cat 152401), 1% Probumin (Millipore; Cat #81-068-3) and 20 ng/ml Wnt3a (R&D Systems; Cat #1324-WN/CF). […]

Assay [2] relates to H1 human embryonic stem cells. Briefly: Step-wise differentiation, FACS for CXCR4 after step 1 (Example 12). Format: cell-based. Conditions: compared to activin A and Wnt3a. On the procedure: The assay was initiated by aspirating the culture medium from each well and adding back an aliquot (0.5 ml) of test medium. Test conditions for the first step of differentiation were conducted over a three-day period, feeding daily by aspirating and replacing the medium from each well with fresh test medium. On the first day of assay, 100 ng/ml activin A (PeproTech; Cat #120-14) or 200 ng/ml GDF-8 (R&D Systems, Cat #788-G8) was added to respective assay wells where each growth factor was diluted into RPMI-1640 medium (Invitrogen; Cat #22400) with 1% Albumin Bovine Fraction V, Fatty Acid Free (FAF BSA) (MP Biomedicals, Inc; Cat 152401), 1% Probumin (Millipore; Cat #81-068-3) and 20 ng/ml Wnt3a (R&D Systems; Cat #1324-WN/CF). On the second day of assay, 100 ng/ml activin A or 200 ng/ml GDF-8 was diluted into RPMI-1640 medium supplemented with 2% FAF BSA without Wnt3a. In some test samples using GDF-8, Wnt3a was replaced with a either Compound 34 or Compound 56 at a concentration of 2.5 μM, and either Compound 34 or Compound 56 was added daily during all three days of definitive endoderm differentiation. At the conclusion of the first step of differentiation, cells from some wells were harvested for flow cytometry analysis to evaluate levels of CXCR4, a marker of definitive endoderm formation. Additional wells were harvested for RT-PCR analysis to measure other markers of differentiation.
Cells for FACS analysis were blocked in a 1:5 solution of 0.5% human gamma-globulin (Sigma; Cat#G-4386) in PBS (Invitrogen; Cat #14040-133): BD FACS staining buffer-BSA (BD; Cat #554657) for 15 minutes at 4° C. Cells were then stained with antibodies for CD9 PE (BD; Cat #555372), CD99 PE (Caltag; Cat #MHCD9904) and CXCR4 APC(R&D Systems; Cat#FAB 173A) for 30 minutes at 4° C. After a series of washes in BD FACS staining buffer, the cells were stained for viability with 7-AAD (BD; Cat #559925) and run on a BD FACSAiray. A mouse IgG1K Isotype control antibody for both PE and APC was used to gate percent positive cells.

Where [3] appears, read: 200 ng/ml GDF-8 with 2.5 μM compound all three days.

For the compound `O=C1CCN2CCN(CC2)Cc2cc(Cl)cc(c2)Nc2ncnc(n2)-c2cncc(c2)CCCN1` [Compound 34, 5-Chloro-1,8,10,12,16,22,26,32-octaazapentacyclo[24.2.2.1˜3.7˜0.1˜9,13˜0.1˜14.18˜]tritriaconta-3(33), 4,6,9(32), 10,12,14(31), 15,17-nonaen-23-one], the “expression levels of markers associated with endodermal and endocrine differentiation (PCR)” value in assay [1] was “similar, or in some instances, improved expression levels”. The “percentage of CXCR4 positive cells after step 1” value (“percentage” below) in assay [2] (setting [3]) was “equivalent or higher percentage of CXCR4 positive cells”.

In the case of `Cc1c[nH]c(-c2cnc(NCCNc3ccc(C#N)cn3)nc2-c2ccc(Cl)cc2Cl)n1` [Compound 56, 6-[(2-{[4-(2,4-Dichlorophenyl)-5-(4-methyl-1H-imidazol-2-yl)pyrimidin-2-yl]amino}ethyl)amino]pyridine-3-carbonitrile], the “expression levels of markers associated with endodermal and endocrine differentiation (PCR)” value in assay [1] is given as “similar, or in some instances, improved expression levels”. The “percentage” value in assay [2] (setting [3]) is recorded as “equivalent or higher percentage of CXCR4 positive cells”.

On to “GDF-8: growth factor GDF-8, also known as myostatin, member of the TGF-β family”, for which the “expression levels of markers associated with endodermal and endocrine differentiation (PCR)” value in assay [1] was “similar, or in some instances, improved expression levels”. Moreover, the “percentage” value in assay [2] (200 ng/ml GDF-8 with Wnt3a) is “equivalent percentage of CXCR4 positive cells”.
